Source: patent US20250367227A1, “FOLIC ACID-MODIFIED LIPOSOME-ENCAPSULATED TILIANIN NANOCRYSTAL (FA-Lipo@Til NC), PREPARATION METHOD AND USE THEREOF” (THE 1ST AFFILIATED HOSPITAL OF SHIHEZI UNIVERSITY, priority 2024, published 2025)

Key:
[1] = cited from earlier work
Caco-2 cell monolayer = Caco-2 cell monolayer transport; type: in vitro ADME; details: Til by HPLC on basolateral side, 50 μg to 100 μg Til
Experimental: The FA-Lipo@Til NCs obtained in Example 3 were tested using a Caco-2 cell culture monolayer model, Caco-2 cells were collected with a cell plating density of 1×10^5 […]. Cells were inoculated on the upper layer of the Transwell plate, 500 μL of diluted cell suspension was added to each well, and 600 μL of blank MEM medium was added to the lower layer, and the plates were placed in an incubator for culture; after 21 days of continuous culture, appropriate cell wells were selected, the upper and lower layers of the Transwell plate were replaced with HBSS balancing solution, and the plates were balanced in the incubator for 30 min. After removing the buffer, different concentrations of FA-Lipo@Til NCs (all diluted to 300 μL with HBSS containing 10% FBS) were added into the well, 100 μL of sample was taken from the lower layer of the Transwell plate at a specific time point, and an equal amount of HBSS buffer was supplemented, and the samples collected at different time points were used to detect the content of Til by HPLC. The cumulative release amount and Papp of the preparation were calculated. […] The transport amount of raw material Til through the monolayer was the lowest, while Til NCs were transported to the basolateral side over time, which was about 3 times that of the former at 4 h. […] FA ligands enhanced the internalization and transport of nanoparticles.

[2] = 37° C.; cited from earlier work
[3] = Dissolution behavior, dialysis diffusion method; type: physicochemical; details: 37° C., dialysis bag 3,500 D, 4 h
Experimental: The dissolution behavior of FA-Lipo@Til NCs in Example 3 was measured in different media (water, SGF, and SIF) at 37° C. using the dialysis diffusion method. 1 mL of Til raw material and Til NC preparation (containing 1 mg/mL of Til) were placed in a dialysis bag with a molecular weight cut-off of 3,500 D, which was then placed in 50 mL of dissolution medium and then placed in an oscillator with a frequency of 100 rpm at 37° C. Samples were taken at 1 min, 2 min, 3 min, 5 min, 10 min, 15 min, 30 min, 45 min, 60 min, 90 min, 120 min, 180 min, and 240 min, respectively. After taking the samples, the corresponding volume of medium was supplemented, and the samples were centrifuged (12,000 rpm, 10 min) and determined by HPLC. […] FA-Lipo@Til NCs were released more slowly than Til NCs. At 4 h, approximately 45% (in SGF) and 35% (in SIF) of Til in Lipo@Til NCs and FA-Lipo@Til NCs were released, while the cumulative release from Til NCs exceeded 55% (in SGF) and 65% (in SIF) within 4 h.

atherosclerotic plaques = experiment: In vivo pharmacodynamic evaluation in atherosclerosis model (ORO, H&E, Masson staining); parameters: species or system ApoE-/- mice; details: p.o., 4 mg/kg once a day, 12 weeks, Model group 51.53%
Experimental: AS model mice and initial treatment plan: ApoE^-/- mice were fed a high-fat diet for 12 weeks and then randomly divided into 5 groups: Model group (normal saline group); Crude Til group (p.o., 4 mg/kg); Til NCs group (p.o., 4 mg/kg); Lipo@Til NCs group (p.o., 4 mg/kg); FA-Lipo@Til NCs group in Example 3 (p.o., 4 mg/kg). The Control group was replaced by C57BL/6J mice fed with ordinary diet in the same cycle. The drug was administered orally once a day for 12 consecutive weeks, ApoE--mice continued to eat a high-fat diet throughout the treatment, and body weight changes were recorded 2 times a week. After 12 weeks of continuous administration, the mice were fasted but allowed to drink water 12 h before the experiment. Their eyeballs were removed to collect whole blood serum, and then the mice were dissected, their heart was exposed, and a small incision was made in the right atrium, and the whole body was perfused with pre-cooled saline until the outflowing fluid became clear. […]
ORO staining of the entire aorta: fat tissue stained bright red by ORO could interfere with the observation of plaques, such that the fat tissue around the blood vessels needed to be removed with fine forceps under a stereomicroscope. […] After photographing, the images were measured using ImageJ, and the percentage of plaques in the intima area was calculated to correct for differences in body size. […]

acacetin-7-glucoside [Til]
absolute oral bioavailability [1]: 1.350±0.710% | transport through the Caco-2 cell monolayer (Caco-2 cell monolayer): lowest | solubility in aqueous media [2]: 1.57 µg/mL | cumulative release of Til in SGF ([3]; SGF): about 4% | cumulative release of Til in SIF ([3]; SIF): about 4% | average plaque area of the aorta (ORO staining) (atherosclerotic plaques): reduced
